The source of these data is ChEMBL document CHEMBL4118128, “Discovery of chiral dihydropyridopyrimidinones as potent, selective and orally bioavailable inhibitors of AKT” (Bioorg Med Chem Lett, 2018).

SMILES strings stand for the structures. In brackets after ≈: the same amount, converted by molar mass. Activity calls are given as the source filed them. The rule behind the calls is not given here.

A short description of series [1]: Lipophilicity, log P of the compound. It is filed as physicochemical. To be noted: octanol/water.
Series [2] can be described thus: Aqueous solubility in pH 7.4 buffer. It is filed as physicochemical.
The target of series [3] is Voltage-gated inwardly rectifying potassium channel KCNH2 (Homo sapiens, UniProt Q12809). Briefly: Inhibition of human ERG.
Series [4] concerns the target T1, RAC-alpha serine/threonine-protein kinase (Homo sapiens, UniProt P31749). Briefly: Inhibition of human recombinant AKT1 expressed in insect cells incubated for 60 mins measured at apparent ATP Km level by kinase ADP-FP assay.
In series [5] the target is Ribosomal protein S6 kinase beta-1 (Homo sapiens, UniProt P23443). As to the kind of experiment: Inhibition of human p70S6K measured at apparent ATP Km level.
Series [6] addresses Rho-associated protein kinase 2 (Homo sapiens, UniProt O75116). As to the kind of experiment: Inhibition of histidine-tagged human recombinant ROCK2 (11 to 552 residues) expressed in insect cells using RFARKGSLRQKNV substrate incubated for 60 mins measured at apparent ATP Km level by kinase ADP-FP assay.
The nature of series [7]: Inhibition of human PKA measured at apparent ATP Km level.
For series [8], the target named is Protein kinase C beta type (Homo sapiens, UniProt P05771). Briefly: Inhibition of human PKCbeta2 measured at apparent ATP Km level.
For series [9], the target named is Ribosomal protein S6 kinase alpha-1 (Homo sapiens, UniProt Q15418). Briefly: Inhibition of human RSK1 measured at apparent ATP Km level.
In series [10] the target is T1, RAC-alpha serine/threonine-protein kinase. As to the kind of experiment: Inhibition of AKT1 in human U87MG cells assessed as reduction in GSK3beta Ser9 phosphorylation incubated for 1 hr by alpha screen Surefire assay. In kind it is cell-based.
Series [11] is filed under the species Homo sapiens. As to the kind of experiment: Selectivity index, ratio of IC50 for human recombinant ROCK2 (11 to 552 residues) expressed in insect cells to IC50 for human recombinant AKT1 expressed in insect cells.
A short description of series [12]: Oral bioavailability in Sprague-Dawley rat at 5 mg/kg by LC-MS/MS method. It is filed as ADME, organism-based. To be noted: in vivo.
A short description of series [13]: AUC (0 to 24 hrs) in Sprague-Dawley rat at 5 mg/kg, po by LC-MS/MS method. In kind it is ADME, organism-based. Further details: dose 5 mg/kg, time < 24 hr, route oral. To be noted: in vivo.
A short description of series [14]: Clearance in Sprague-Dawley rat at 10 mg/kg, iv by LC-MS/MS method. It is filed as ADME, organism-based. To be noted: in vivo.
Series [15] has as its system Rattus norvegicus. As to the kind of experiment: Intrinsic unbound clearance in Sprague-Dawley rat at 10 mg/kg, iv by LC-MS/MS method. In kind it is ADME, organism-based. To be noted: in vivo.
Series [16] in a line: Volume of distribution at steady state in Sprague-Dawley rat at 10 mg/kg, iv or 5 mg/kg, po by LC-MS/MS method. To be noted: in vivo, read-out: Vdss. In kind it is ADME, organism-based.
The nature of series [17]: Half life in Sprague-Dawley rat at 10 mg/kg, iv by LC-MS/MS method. In kind it is ADME, organism-based. To be noted: in vivo.
Series [18] relates to Mus musculus. As to the kind of experiment: Ratio of AUC (0 to 24 hrs) in P-gp and BCRP knockout mouse at 2.5 mg/kg, po to AUC (0 to 24 hrs) in wild type mouse at 2.5 mg/kg, po. It is filed as ADME, organism-based. To be noted: in vivo.
A short description of series [19]: AUC (0 to 24 hrs) in wild type mouse at 2.5 mg/kg, po by LC-MS/MS method. It is filed as ADME, organism-based. On the set-up: time < 24 hr, dose 2.5 mg/kg, route oral. To be noted: in vivo.
Series [20] in a line: AUC (0 to 24 hrs) in P-gp and BCRP knockout mouse at 2.5 mg/kg, po by LC-MS/MS method. In kind it is ADME, organism-based. Further details: time < 24 hr, dose 2.5 mg/kg, route oral. To be noted: in vivo.
The nature of series [21]: Cmax in wild type mouse at 2.5 mg/kg, po by LC-MS/MS method. It is filed as ADME, organism-based. To be noted: in vivo. On the set-up: dose 2.5 mg/kg, route oral.
Series [22] can be described thus: Cmax in P-gp and BCRP knockout mouse at 2.5 mg/kg, po by LC-MS/MS method. It is filed as ADME, organism-based. On the set-up: dose 2.5 mg/kg, route oral. To be noted: in vivo.
For series [23], the system named is U-87 MG. As to the kind of experiment: Antitumor activity against human U87MG cells xenografted in rat assessed as inhibition of tumor growth at 25 to 50 mg/kg, po qd for 4 weeks. In kind it is functional, organism-based. To be noted: U-87MG ATCC.
In series [24] the test system is U-87 MG. As to the kind of experiment: Antitumor activity against human U87MG cells xenografted in rat assessed as inhibition of tumor growth at 25 mg/kg, po bid for 4 weeks. To be noted: U-87MG ATCC. In kind it is functional, organism-based.
In series [25] the test system is Rattus norvegicus. Briefly: Toxicity in human U87MG cells xenografted rat assessed as induction of body weight loss at 25 to 50 mg/kg, po qd for 4 weeks. In kind it is organism-based. To be noted: in vivo, 672 h.
Series [26] has as its system Rattus norvegicus. As to the kind of experiment: Toxicity in human U87MG cells xenografted rat assessed as induction of body weight loss at 25 mg/kg, po bid for 4 weeks. It is filed as organism-based. To be noted: in vivo, 672 h. Background: Xenograft models place foreign cells or tissue in a host animal.

Sequence of Ribosomal protein S6 kinase alpha-1 (Q15418 whole entry): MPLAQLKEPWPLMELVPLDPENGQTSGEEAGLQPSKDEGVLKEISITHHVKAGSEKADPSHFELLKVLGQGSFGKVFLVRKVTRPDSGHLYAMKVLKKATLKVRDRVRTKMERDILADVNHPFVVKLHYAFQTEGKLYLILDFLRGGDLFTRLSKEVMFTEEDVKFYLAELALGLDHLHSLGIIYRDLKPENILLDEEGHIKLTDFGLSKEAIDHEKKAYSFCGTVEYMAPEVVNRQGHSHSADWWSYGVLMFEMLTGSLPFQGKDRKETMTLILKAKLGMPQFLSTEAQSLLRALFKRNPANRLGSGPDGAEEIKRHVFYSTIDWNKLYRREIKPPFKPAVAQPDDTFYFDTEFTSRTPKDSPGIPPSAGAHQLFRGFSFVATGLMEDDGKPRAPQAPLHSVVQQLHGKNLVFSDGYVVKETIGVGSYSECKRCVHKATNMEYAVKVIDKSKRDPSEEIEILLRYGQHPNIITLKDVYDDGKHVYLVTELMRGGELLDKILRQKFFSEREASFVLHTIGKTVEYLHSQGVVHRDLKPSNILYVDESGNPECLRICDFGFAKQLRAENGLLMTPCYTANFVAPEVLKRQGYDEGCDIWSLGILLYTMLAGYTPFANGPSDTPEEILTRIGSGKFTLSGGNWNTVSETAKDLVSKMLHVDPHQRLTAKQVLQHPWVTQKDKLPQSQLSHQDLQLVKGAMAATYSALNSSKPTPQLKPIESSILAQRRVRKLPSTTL
Sequence of Ribosomal protein S6 kinase beta-1 (P23443 whole entry, the tested form may be a part): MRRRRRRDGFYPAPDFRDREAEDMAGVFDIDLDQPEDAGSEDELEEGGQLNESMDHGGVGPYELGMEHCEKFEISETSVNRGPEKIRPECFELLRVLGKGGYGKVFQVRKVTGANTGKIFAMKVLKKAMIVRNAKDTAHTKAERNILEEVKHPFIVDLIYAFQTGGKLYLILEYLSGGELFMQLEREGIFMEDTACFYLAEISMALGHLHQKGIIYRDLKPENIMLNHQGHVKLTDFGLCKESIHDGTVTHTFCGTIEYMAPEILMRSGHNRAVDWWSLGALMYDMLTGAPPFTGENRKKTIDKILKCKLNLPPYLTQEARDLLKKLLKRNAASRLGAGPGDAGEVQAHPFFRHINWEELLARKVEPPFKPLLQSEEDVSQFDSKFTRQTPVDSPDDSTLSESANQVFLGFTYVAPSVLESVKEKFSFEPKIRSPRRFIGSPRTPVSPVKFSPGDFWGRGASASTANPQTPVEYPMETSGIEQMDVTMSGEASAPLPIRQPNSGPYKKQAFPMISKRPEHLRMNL
T1 sequence (P31749 whole entry): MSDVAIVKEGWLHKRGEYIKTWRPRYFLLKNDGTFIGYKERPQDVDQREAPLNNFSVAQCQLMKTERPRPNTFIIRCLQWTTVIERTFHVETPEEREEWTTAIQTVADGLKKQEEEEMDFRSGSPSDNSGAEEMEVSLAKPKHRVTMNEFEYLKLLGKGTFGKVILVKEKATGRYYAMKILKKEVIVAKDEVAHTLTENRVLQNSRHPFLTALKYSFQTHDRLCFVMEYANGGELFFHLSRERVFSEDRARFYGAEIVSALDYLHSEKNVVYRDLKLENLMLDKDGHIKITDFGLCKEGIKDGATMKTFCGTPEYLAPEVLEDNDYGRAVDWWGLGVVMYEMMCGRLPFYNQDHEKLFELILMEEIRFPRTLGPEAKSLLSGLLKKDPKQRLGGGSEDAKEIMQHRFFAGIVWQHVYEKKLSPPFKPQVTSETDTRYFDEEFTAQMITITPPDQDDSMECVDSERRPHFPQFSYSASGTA
Sequence of Voltage-gated inwardly rectifying potassium channel KCNH2 (Q12809 whole entry): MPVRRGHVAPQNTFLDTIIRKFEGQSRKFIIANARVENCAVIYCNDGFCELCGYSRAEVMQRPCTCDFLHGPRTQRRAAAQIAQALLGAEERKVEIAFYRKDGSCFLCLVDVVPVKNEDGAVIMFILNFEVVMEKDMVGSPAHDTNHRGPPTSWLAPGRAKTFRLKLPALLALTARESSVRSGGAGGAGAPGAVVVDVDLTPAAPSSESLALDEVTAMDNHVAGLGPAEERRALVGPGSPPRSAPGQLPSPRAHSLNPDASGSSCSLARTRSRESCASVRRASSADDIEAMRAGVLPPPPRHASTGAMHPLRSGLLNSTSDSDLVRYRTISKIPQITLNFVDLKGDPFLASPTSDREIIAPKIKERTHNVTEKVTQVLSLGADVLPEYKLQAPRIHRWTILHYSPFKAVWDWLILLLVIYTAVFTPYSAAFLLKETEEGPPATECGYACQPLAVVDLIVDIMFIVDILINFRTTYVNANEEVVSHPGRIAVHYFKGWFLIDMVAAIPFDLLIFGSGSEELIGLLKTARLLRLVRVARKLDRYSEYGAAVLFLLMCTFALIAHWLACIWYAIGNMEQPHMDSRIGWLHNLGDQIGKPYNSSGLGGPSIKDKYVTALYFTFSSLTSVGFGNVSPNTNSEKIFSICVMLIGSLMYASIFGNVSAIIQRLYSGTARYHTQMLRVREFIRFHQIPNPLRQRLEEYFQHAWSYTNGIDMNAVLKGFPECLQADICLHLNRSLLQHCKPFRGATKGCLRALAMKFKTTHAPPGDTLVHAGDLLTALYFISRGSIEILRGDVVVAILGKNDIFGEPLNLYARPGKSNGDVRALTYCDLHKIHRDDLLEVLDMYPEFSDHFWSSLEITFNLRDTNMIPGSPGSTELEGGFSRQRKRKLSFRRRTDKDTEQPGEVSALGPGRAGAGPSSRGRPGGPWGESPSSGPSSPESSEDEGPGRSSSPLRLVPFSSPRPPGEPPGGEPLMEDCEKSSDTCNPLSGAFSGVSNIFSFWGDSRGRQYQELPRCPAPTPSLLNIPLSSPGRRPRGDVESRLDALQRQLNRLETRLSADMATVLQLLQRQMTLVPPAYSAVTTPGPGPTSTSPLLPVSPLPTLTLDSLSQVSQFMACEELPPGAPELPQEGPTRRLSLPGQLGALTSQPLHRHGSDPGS
Sequence of Protein kinase C beta type (P05771 whole entry): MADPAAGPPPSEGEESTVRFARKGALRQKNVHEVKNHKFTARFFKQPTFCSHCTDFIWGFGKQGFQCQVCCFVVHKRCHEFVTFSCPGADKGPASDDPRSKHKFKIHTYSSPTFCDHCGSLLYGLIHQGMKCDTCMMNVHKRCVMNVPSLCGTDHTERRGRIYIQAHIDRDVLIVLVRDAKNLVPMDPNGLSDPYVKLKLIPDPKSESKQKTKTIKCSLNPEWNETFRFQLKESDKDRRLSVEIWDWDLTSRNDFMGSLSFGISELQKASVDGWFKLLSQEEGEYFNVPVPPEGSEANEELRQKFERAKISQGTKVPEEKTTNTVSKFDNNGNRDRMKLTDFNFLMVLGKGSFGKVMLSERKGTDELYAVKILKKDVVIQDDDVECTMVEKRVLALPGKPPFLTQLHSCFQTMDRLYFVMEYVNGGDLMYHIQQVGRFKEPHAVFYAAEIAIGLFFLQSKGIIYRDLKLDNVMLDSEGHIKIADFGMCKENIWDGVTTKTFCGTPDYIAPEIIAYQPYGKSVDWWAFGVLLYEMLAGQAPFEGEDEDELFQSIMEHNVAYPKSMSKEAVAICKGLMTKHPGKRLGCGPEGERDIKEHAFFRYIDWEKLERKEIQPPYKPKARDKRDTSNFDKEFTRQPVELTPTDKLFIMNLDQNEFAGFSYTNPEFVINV
Sequence of Rho-associated protein kinase 2 (O75116 whole entry, the tested form may be a part): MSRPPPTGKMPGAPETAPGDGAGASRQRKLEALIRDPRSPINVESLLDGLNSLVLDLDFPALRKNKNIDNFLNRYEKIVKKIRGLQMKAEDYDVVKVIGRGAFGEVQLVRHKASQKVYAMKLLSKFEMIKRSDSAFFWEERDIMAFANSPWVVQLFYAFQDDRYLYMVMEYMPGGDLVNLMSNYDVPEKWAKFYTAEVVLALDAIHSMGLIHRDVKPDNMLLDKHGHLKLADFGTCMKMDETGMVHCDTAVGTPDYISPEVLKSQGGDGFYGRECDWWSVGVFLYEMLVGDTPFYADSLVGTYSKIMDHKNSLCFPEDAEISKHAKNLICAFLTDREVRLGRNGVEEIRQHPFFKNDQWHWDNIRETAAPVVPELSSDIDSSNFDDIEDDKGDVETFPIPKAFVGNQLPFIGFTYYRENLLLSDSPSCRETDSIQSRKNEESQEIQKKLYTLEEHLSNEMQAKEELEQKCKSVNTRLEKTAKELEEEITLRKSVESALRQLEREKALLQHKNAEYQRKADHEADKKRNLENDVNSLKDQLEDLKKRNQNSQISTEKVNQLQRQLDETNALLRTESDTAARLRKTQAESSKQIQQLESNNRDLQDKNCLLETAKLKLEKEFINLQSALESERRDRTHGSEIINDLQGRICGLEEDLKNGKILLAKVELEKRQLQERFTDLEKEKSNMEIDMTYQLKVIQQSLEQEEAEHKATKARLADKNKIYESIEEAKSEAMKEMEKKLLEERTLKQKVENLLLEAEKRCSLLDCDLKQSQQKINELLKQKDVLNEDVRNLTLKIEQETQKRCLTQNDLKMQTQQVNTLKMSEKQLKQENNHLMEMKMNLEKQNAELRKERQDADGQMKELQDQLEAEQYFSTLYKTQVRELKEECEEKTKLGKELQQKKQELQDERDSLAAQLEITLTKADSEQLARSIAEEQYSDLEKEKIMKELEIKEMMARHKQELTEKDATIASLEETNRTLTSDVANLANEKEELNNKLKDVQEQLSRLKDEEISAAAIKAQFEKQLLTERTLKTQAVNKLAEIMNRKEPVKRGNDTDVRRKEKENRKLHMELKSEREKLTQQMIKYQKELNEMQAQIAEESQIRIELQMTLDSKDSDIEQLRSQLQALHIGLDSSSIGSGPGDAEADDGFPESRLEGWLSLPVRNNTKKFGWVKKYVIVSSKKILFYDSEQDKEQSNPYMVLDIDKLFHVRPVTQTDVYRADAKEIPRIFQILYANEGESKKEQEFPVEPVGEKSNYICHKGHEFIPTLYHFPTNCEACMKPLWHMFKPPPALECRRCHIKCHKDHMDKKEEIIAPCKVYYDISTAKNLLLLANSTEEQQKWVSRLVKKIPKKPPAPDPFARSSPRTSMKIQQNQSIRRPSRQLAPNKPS

As a reminder, the logP is a log measure of how a compound divides between an organic and an aqueous phase. A higher logP goes with a more lipophilic compound. For orientation: solubility means the dissolved amount per volume that the medium holds. A lower solubility goes with little dissolved substance. By IC50 is commonly meant the concentration that gives 50% inhibition. In general, bioavailability refers to the share of a dose that reaches the circulation, judged against a reference dose that is usually intravenous. A low value points to little systemic uptake. Usually AUC(0-t) stands for exposure summed from dosing to a finite time, without extrapolation to infinity. Low values mean less exposure, high ones more exposure. By clearance is commonly meant the volume of plasma or blood freed of the substance per unit of time. A lower clearance goes with a low capacity for elimination. As usually defined, the half-life is how long it takes for the measured level to halve. Read a high half-life as slow decline. `C[C@@H]1CC(=O)Nc2ncnc(N3CCC(c4nc(C(F)(F)F)cn4CCN4CCCC4)CC3)c21` came in with a logP in series [1] of 1.66. The solubility in series [2] was 1860 µg/mL (≈ 3900 µM). This molecule registered an INH in series [3] greater than 100 µM. Besides, the IC50 in series [4] was 11 nM; in series [5], 876 nM; in series [6], greater than 20000 nM; in series [7], 124 nM; in [8], 16300 nM; in series [9], 272 nM. Also, the IC50 in [10] was determined as 2460 nM. For the same molecule, the Ratio IC50 in series [11] was greater than 1000. In [12], the bioavailability is 64%. In series [13], this molecule had an exposure AUC(0-t) at 24 h of 24100 ng·h/mL. The same molecule displayed a clearance in series [14] of 2.18 mL/min/kg. In series [15], this molecule had a CL free of 66 mL/min/kg. In addition, the Vd in [16] is 0.65 L/kg. Besides, the half-life in series [17] was 3 h.

On to `Cn1cc(-c2ccc(F)c(C(F)(F)F)c2)nc1C1CCN(c2ncnc3[nH]ncc23)CC1` [LY-2584702], for which, in series [5], the IC50 came to 4 nM.

What is called Cmax is the highest concentration seen after dosing. In turn, `C[C@@H]1CC(=O)Nc2ncnc(N3CCC(c4nc(C5CCOCC5)cn4CCN4CCCC4)CC3)c21` yielded a logP in series [1] of 0.95. The molecule further displayed a solubility in series [2] greater than 2000 µg/mL. Further, the INH in series [3] is greater than 100 µM. The IC50 is 4 nM in series [4]; 1900 nM in [5]; greater than 20000 nM in [6]; 412 nM in series [7]; 20000 nM in series [8]; 699 nM in series [9]. The IC50 in [10] was 230 nM. Further, the Ratio IC50 in [11] is greater than 1000. In series [12], this molecule yielded a bioavailability of 14%. Moreover, the AUC(0-t) at 24 h in series [13] came to 173 ng·h/mL; in series [19], 108 ng·h/mL; in series [20], 501 ng·h/mL. The molecule further came in with a clearance in series [14] of 64 mL/min/kg. Further, the CL free in series [15] turned out to be 85 mL/min/kg. In series [16], the Vd is 13.8 L/kg. Also, in series [17], the half-life was 8.6 h. Further, the Ratio in series [18] was 5. For the same molecule, the highest concentration (Cmax) was 33 ng/mL in series [21] and 189 ng/mL in series [22].

Molecule `C[C@@H]1CC(=O)Nc2ncnc(N3CCC(c4nc(-c5ccc(F)c(C(F)(F)F)c5)cn4CCN4CCCC4)CC3)c21` came in with a logP in [1] of 4.84. In addition, in series [2], the concentration in solution (solubility) was 35 µg/mL (≈ 61.2 µM). Also, the INH in series [3] is 1.74 µM. Moreover, the IC50 in series [4] was 3 nM; in series [5], 35 nM; in [6], greater than 20000 nM; in [7] it was 653 nM; in series [8], 36 nM; in series [9], 20 nM. The IC50 in series [10] turned out to be 39 nM. Also, in [11], the Ratio IC50 is greater than 1000.

For `C[C@@H]1CC(=O)Nc2ncnc(N3CCC(c4nc(CCC(F)(F)F)cn4CCN4CCCC4)CC3)c21`, the logP in [1] was determined as 2.39. Also, in [2], the solubility was 990 µg/mL (≈ 1960 µM). This molecule also gave an INH in series [3] of 18.5 µM. For the same molecule, the IC50 in series [4] is 5 nM; in series [5], 399 nM; in [6], greater than 20000 nM; in [7], 84 nM; in series [8], 3980 nM; in [9] it was 568 nM. Also, in series [10], the IC50 is 92 nM. Also, the Ratio IC50 in series [11] is greater than 1000. In series [12], this molecule yielded a bioavailability of 55%. For the same molecule, the AUC(0-t) at 24 h in series [13] came to 638 ng·h/mL; in [19] it was 290 ng·h/mL; in series [20], 359 ng·h/mL. The molecule also had a clearance in series [14] of 74 mL/min/kg. Moreover, the CL free in [15] was 43 mL/min/kg. In series [16], the Vd turned out to be 11.6 L/kg. Further, in series [17], the half-life was 2.3 h. In addition, the peak concentration (Cmax) came out at 76 ng/mL in series [21] and 109 ng/mL in series [22]. The TGI entry in [23] is “Dose-dependent effect”. Moreover, in series [24], the TGI entry was “Active”. Besides, the Activity result in series [25] and in series [26] was “Non-Toxic” in each case.
